What all share (assay type): in vivo, swine
The test system of one test is mature postpartum sows. Nature of the test: Intravulvar injection at estrus detection in mature postpartum sows, AI breeding (Example 2). The protocol: Sows were assigned randomly in blocks of two to either control or to be injected intravulvar with 50 mcg of deslorelin in SAIB at the time of estrus detection for sows first detected in estrus in the a.m. and 12 hours later for those first detected in estrus in the p.m. Treated animals were bred AI upon detected estrus and again 24 hours later if still in estrus. Controls received a saline injection on first detected estrus behavior estrus detection and were bred according to the farm's normal procedures.

Test [1] has as its system postpartum sows. The test is described as follows: Litter size after deslorelin treatment in postpartum sows, three farm sites (Example 4). The settings on record: regardless of estrus detection, Tables 3-5. The source says:
Postpartum sows were randomly distributed into three different groups comprised of Controls, Treatment 1, and Treatment 2, with the exception of Site 3, which was divided into two groups, Control and Treatment 2. Control sows were detected for estrus following weaning, and bred following the normal standard operating procedures for the farms on which they resided. Treatment 1 sows were detected for estrus following weaning, and received a 50 mcg dose of deslorelin in the morning when standing and were bred by AI 4 hours later and again at 24+/−2 hours later. Treatment 2 sows received a 50 mcg dose of deslorelin in SAIB at 96 or 120 hours post-weaning and were bred with a single insemination 28+/−2 hours later with no regard to estrus detection.

The test system of test [2] is postpartum sows. Nature of the test: Single timed injection 96 hours post-weaning, single timed insemination without estrus detection (Example 3). The note with it: 50 mcg in SAIB at 96 hours post-weaning. The protocol:
(§1) Approximately 170 postpartum sows were randomly divided into two equal groups comprised of controls and treated. Following weaning, the controls were detected for estrus and bred following the normal standard operating procedures for the farms on which they resided. The treated sows received a 50 mcg dose of deslorelin in SAIB at 96 hours post-weaning and were bred with a single insemination 28+/−2 hours later with no regard to estrus detection. The sows were examined for pregnancy by ultrasound at 21 days and slaughtered around 28 days post breeding. The entire reproductive tract was removed and corpora lutea and embryos were counted.

Test [3] deals with postpartum sows. The test is described as follows: Pregnancy rate after deslorelin treatment in sows, summary of data of Tables 2-5. The settings on record: Table 6. As for the experimental part: as §1, with “counted. Postpartum sows were randomly distributed into three different groups comprised of Controls, Treatment 1, and Treatment 2, with the exception of Site 3, which was divided into two groups, Control and Treatment 2. Control sows were detected for estrus following weaning, and bred following the normal standard operating procedures for the farms on which they resided. Treatment 1 sows were detected for estrus following weaning, and received a 50 mcg dose of deslorelin in the morning when standing and were bred by AI 4 hours later and again at 24+/−2 hours later. Treatment 2 sows received a 50 mcg dose of deslorelin in SAIB at 96 or 120 hours post-weaning and were bred with a single insemination 28+/−2 hours later with no regard to estrus detection. […]” for “counted.”

For the compound `CCNC(=O)[C@@H]1CCCN1C(=O)[C@H](CCCN=C(N)N)NC(=O)[C@H](CC(C)C)NC(=O)[C@@H](Cc1c[nH]c2ccccc12)NC(=O)[C@H](Cc1ccc(O)cc1)NC(=O)[C@H](CO)NC(=O)[C@H](Cc1c[nH]c2ccccc12)NC(=O)[C@H](Cc1cnc[nH]1)NC(=O)[C@@H]1CCC(=O)N1` [Deslorelin, deslorelin], the “Pregnancy Rate” value in the test with mature postpartum sows (50 μg deslorelin acetate (1 ml) intravulvar at first estrus detection, AI, AI again if in estrus next day, n = 75) is reported as 91%; in the test on postpartum sows [2] (single timed insemination, no estrus detection), 71%. For the same compound, in the test on mature postpartum sows (50 μg deslorelin acetate (1 ml) intravulvar at first estrus detection, n = 69), the “Length of Estrus” value came to 40.81 h. Also, in the test on mature postpartum sows (50 μg intravulvar at first estrus detection, live piglets born per litter, greater than control), the “Live piglet number, Deslorelin versus Saline sows (difference)” value is recorded as “Live piglet number 0.6> in Deslorelin versus Saline sows”. For the same compound, the “Litter sizes (in words)” value in the test on postpartum sows [1] is “normal litter sizes”. Also, the “Embryo Survival” value in the test with postpartum sows [2] was determined as 64%. For the same compound, in the test on postpartum sows [2] (single insemination 28+/-2 hours later, 84 in group), the “Sows Pregnant” value was 60. Also, the “Pregnancy rates (in words)” value in the test with postpartum sows [3] was “normal pregnancy rates were obtained”.

Values taken from patent US20050130894A1, “Process for the synchronization of ovulation for timed breeding without heat detection” (priority 2003, published 2005).
